Data reported in PubChem BioAssay AID248 (DTP/NCI, 2004).
Several values for one entry are separate records, joined by “and”; a condition that tells them apart may be missing. Equal values may be shown once. Inconclusive results and toxic doses are left out. Cut-off read from the data, not from the text of the source: active = T/C of 150% or more; inactive = T/C below 125%.

System: L1210 leukemia ip in BDF1 mice, survival T/C
Experiment: NCI In Vivo Anticancer Drug Screen. Data for tumor model L1210 Leukemia (intraperitoneal) in B6D2F1 (BDF1) mice
Details: endpoint: mean survival time, vehicle: water, higher = longer survival
Outline: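 Read-out is survival time, reported as the treated-group measurement over the vehicle-control measurement.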

Measured: T/C

O=C(NO)c1ccncc1
inactive: dose: 6.25 mg/kg/injection, schedule: Q03HX008 (ip) 96 % of control | dose: 12.5 mg/kg/injection, schedule: Q03HX008 (ip) 100 % of control | dose: 18.75 mg/kg/injection, schedule: Q03HX008 (ip) 95 % of control | dose: 25.0 mg/kg/injection, schedule: Q01DX005 (iv) 100 % of control | dose: 33.0 mg/kg/injection, schedule: Q#B X027 (sc) 98 % of control | dose: 50.0 mg/kg/injection, schedule: Q01DX005 (iv) 100 % of control and 105 % of control | dose: 50.0 mg/kg/injection, schedule: Q01DX009 (sc) 98 % of control | dose: 67.0 mg/kg/injection, schedule: Q#B X027 (ip) 98 % of control | dose: 100.0 mg/kg/injection, schedule: Q01DX005 (iv) 101 % of control and 102 % of control and 105 % of control | dose: 100.0 mg/kg/injection, schedule: Q01DX009 (ip) 94 % of control and 100 % of control | dose: 100.0 mg/kg/injection, schedule: Q01DX009 (sc) 93 % of control and 100 % of control | dose: 100.0 mg/kg/injection, schedule: Q01DX010 (ip) 106 % of control | dose: 125.0 mg/kg/injection, schedule: Q01DX001 (ip) 97 % of control | dose: 133.0 mg/kg/injection, schedule: Q#B X027 (ip) 103 % of control | dose: 134.0 mg/kg/injection, schedule: Q#B X027 (sc) 107 % of control | dose: 200.0 mg/kg/injection, schedule: Q01DX001 (ip) 107 % of control | dose: 200.0 mg/kg/injection, schedule: Q01DX005 (ip) 101 % of control | dose: 200.0 mg/kg/injection, schedule: Q01DX005 (iv) 100 % of control and 101 % of control | dose: 200.0 mg/kg/injection, schedule: Q01DX009 (sc) 96 % of control | dose: 200.0 mg/kg/injection, schedule: Q01DX010 (ip) 107 % of control | dose: 200.0 mg/kg/injection, schedule: Q01DX Z (ip) 117 % of control | dose: 200.0 mg/kg/injection, schedule: Q02DX Z (ip) 114 % of control | dose: 200.0 mg/kg/injection, schedule: Q04DX003 (ip) 103 % of control | dose: 200.0 mg/kg/injection, schedule: Q08DX002 (ip) 103 % of control | dose: 200.0 mg/kg/injection, schedule: Q#A X030 (ip) 98 % of control | dose: 200.0 mg/kg/injection, schedule: Q#B X027 (ip) 122 % of control | dose: 200.0 mg/kg/injection, schedule: Q#B X027 (sc) 98 % of control | dose: 220.0 mg/kg/injection, schedule: Q01DX Z (ip) 111 % of control | dose: 222.0 mg/kg/injection, schedule: Q01DX015 (ip) 104 % of control | dose: 222.0 mg/kg/injection, schedule: Q01DX Z (ip) 105 % of control and 106 % of control and 119 % of control | dose: 225.0 mg/kg/injection, schedule: Q01DX Z (ip) 109 % of control | dose: 250.0 mg/kg/injection, schedule: Q01DX001 (ip) 94 % of control and 108 % of control | dose: 250.0 mg/kg/injection, schedule: Q01DX005 (iv) 97 % of control | dose: 250.0 mg/kg/injection, schedule: Q01DX009 (oral) 96 % of control and 98 % of control | dose: 250.0 mg/kg/injection, schedule: Q01DX009 (sc) 93 % of control | dose: 250.0 mg/kg/injection, schedule: Q01DX015 (iv) 106 % of control | dose: 250.0 mg/kg/injection, schedule: Q03HX024 (ip) 100 % of control | dose: 267.0 mg/kg/injection, schedule: Q#B X027 (sc) 97 % of control | dose: 270.0 mg/kg/injection, schedule: Q01DX015 (ip) 121 % of control | dose: 300.0 mg/kg/injection, schedule: Q01DX015 (im) 93 % of control | dose: 300.0 mg/kg/injection, schedule: Q01DX Z (ip) 112 % of control | dose: 300.0 mg/kg/injection, schedule: Q02DX Z (ip) 112 % of control | dose: 300.0 mg/kg/injection, schedule: Q#A X030 (ip) 98 % of control | dose: 333.0 mg/kg/injection, schedule: Q01DX015 (ip) 119 % of control | dose: 333.0 mg/kg/injection, schedule: Q01DX Z (ip) 120 % of control | dose: 335.0 mg/kg/injection, schedule: Q01DX Z (ip) 97 % of control and 116 % of control | dose: 400.0 mg/kg/injection, schedule: Q01DX001 (ip) 100 % of control | dose: 400.0 mg/kg/injection, schedule: Q01DX005 (iv) 103 % of control | dose: 400.0 mg/kg/injection, schedule: Q01DX009 (sc) 100 % of control | dose: 400.0 mg/kg/injection, schedule: Q01DX015 (ip) 111 % of control | dose: 400.0 mg/kg/injection, schedule: Q01DX015 (sc) 104 % of control | dose: 400.0 mg/kg/injection, schedule: Q04DX003 (ip) 114 % of control | dose: 400.0 mg/kg/injection, schedule: Q08DX002 (ip) 105 % of control | dose: 500.0 mg/kg/injection, schedule: Q01DX001 (ip) 111 % of control and 113 % of control | dose: 500.0 mg/kg/injection, schedule: Q01DX005 (iv) 100 % of control | dose: 500.0 mg/kg/injection, schedule: Q01DX009 (oral) 93 % of control and 105 % of control | dose: 500.0 mg/kg/injection, schedule: Q01DX009 (sc) 94 % of control and 100 % of control | dose: 500.0 mg/kg/injection, schedule: Q01DX015 (im) 104 % of control | dose: 500.0 mg/kg/injection, schedule: Q01DX015 (ip) 121 % of control | dose: 500.0 mg/kg/injection, schedule: Q01DX015 (oral) 97 % of control | dose: 500.0 mg/kg/injection, schedule: Q03HX024 (ip) 98 % of control | dose: 600.0 mg/kg/injection, schedule: Q01DX001 (ip) 105 % of control | dose: 600.0 mg/kg/injection, schedule: Q01DX005 (ip) 101 % of control | dose: 600.0 mg/kg/injection, schedule: Q01DX005 (iv) 103 % of control | dose: 600.0 mg/kg/injection, schedule: Q01DX015 (sc) 98 % of control | dose: 600.0 mg/kg/injection, schedule: Q02DX Z (ip) 123 % of control | dose: 600.0 mg/kg/injection, schedule: Q03DX005 (ip) 108 % of control | dose: 600.0 mg/kg/injection, schedule: Q04DX003 (ip) 120 % of control | dose: 600.0 mg/kg/injection, schedule: Q08DX002 (ip) 105 % of control | dose: 750.0 mg/kg/injection, schedule: Q01DX009 (oral) 100 % of control | dose: 750.0 mg/kg/injection, schedule: Q01DX009 (sc) 111 % of control | dose: 750.0 mg/kg/injection, schedule: Q01DX015 (im) 113 % of control | dose: 750.0 mg/kg/injection, schedule: Q01DX015 (ip) 113 % of control | dose: 750.0 mg/kg/injection, schedule: Q03HX024 (ip) 96 % of control | dose: 800.0 mg/kg/injection, schedule: Q01DX005 (ip) 107 % of control | dose: 800.0 mg/kg/injection, schedule: Q01DX Z (ip) 114 % of control | dose: 800.0 mg/kg/injection, schedule: Q03DX005 (ip) 107 % of control | dose: 800.0 mg/kg/injection, schedule: Q08DX002 (ip) 111 % of control | dose: 900.0 mg/kg/injection, schedule: Q01DX001 (ip) 105 % of control | dose: 1000.0 mg/kg/injection, schedule: Q01DX001 (ip) 106 % of control | dose: 1000.0 mg/kg/injection, schedule: Q01DX009 (oral) 102 % of control and 105 % of control | dose: 1000.0 mg/kg/injection, schedule: Q01DX015 (oral) 109 % of control | dose: 1000.0 mg/kg/injection, schedule: Q03HX024 (ip) 95 % of control | dose: 1100.0 mg/kg/injection, schedule: Q03DX005 (ip) 108 % of control | dose: 1500.0 mg/kg/injection, schedule: Q03HX024 (ip) 113 % of control
